Series [1] is described as follows: Peptide stability in simulated intestinal fluid (SIF). The following applies: pig, 37 °C, porcine pancreatin; for remaining at 1 h, 10 µM: pH 6.8, 1 h; for remaining at 4 h, 10 µM: pH 6.8, 4 h. It is filed as in vitro ADME. The method, then: (§1) SGF was prepared by dissolving sodium chloride (0.2 g) in 50 mL of water. A volume of 0.7 mL of 10 M HCl was added to adjust the pH of the solution to 1.2 and the volume made up to 100 mL with water. […] SIF was prepared by dissolving monobasic potassium phosphate (0.68 g) in 50 mL of water and adjusting the pH to 6.8 with 1 M NaOH. The volume was subsequently made up to 100 mL with water. 200 mg porcine pancreatin (P1625, Sigma Aldrich) was gently dissolved into 20 mL preheated (37 °C) solution (10 g/L) immediately prior to the incubation.
(§2) The incubation was performed at 37 °C with gentle shaking. […] After the last timepoint, the sampling plate was mixed for 10 min on a shaking table and centrifuged 10 min at 2200 g. 70 µL resulting supernatant was diluted with 150 µL water, mixed and centrifugated before analysis by liquid chromatography high resolution mass spectrometry. […] Percent remaining at each timepoint was calculated relative to timepoint zero based on absolute peak areas.
Compounds with a SIF stability (after 4 h) above 70% are considered highly SIF stable.

A further series deals with T1, human IL-23R (Homo sapiens, UniProt Q5VWK5).
T1 sequence (Q5VWK5 22-629): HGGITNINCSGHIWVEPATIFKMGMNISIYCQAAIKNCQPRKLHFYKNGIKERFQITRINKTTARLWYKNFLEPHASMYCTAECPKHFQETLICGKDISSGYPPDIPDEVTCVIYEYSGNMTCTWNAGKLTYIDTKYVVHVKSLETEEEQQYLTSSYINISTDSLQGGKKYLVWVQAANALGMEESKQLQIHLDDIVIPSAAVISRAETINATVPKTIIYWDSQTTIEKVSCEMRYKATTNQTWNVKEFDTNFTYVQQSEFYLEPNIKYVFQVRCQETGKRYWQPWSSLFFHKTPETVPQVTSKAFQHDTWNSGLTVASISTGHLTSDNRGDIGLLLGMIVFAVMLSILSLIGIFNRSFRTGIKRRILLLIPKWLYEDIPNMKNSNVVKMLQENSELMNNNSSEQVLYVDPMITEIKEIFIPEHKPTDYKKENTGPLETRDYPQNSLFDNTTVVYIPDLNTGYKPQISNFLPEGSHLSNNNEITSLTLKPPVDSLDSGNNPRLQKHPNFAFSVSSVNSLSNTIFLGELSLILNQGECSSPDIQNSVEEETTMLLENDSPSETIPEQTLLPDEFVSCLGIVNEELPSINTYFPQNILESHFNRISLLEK
In words: biochemical. As to conditions: for Emax: read-out: % displacement (hIL-23R NIuc). In short, it runs like this: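 BRET displacement of a TAMRA-labelled reference compound from N-terminal Nanoluc-IL-23R fusion protein in membranes from stably transfected HEK293 cells. Incubation 2 h at room temperature, then Nanoluc substrate was added and the TAMRA/Nanoluc ratio read. IC50 and maximal displacement came from 4-parameter logistic fits.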

The nature of series [2]: Peptide stability in simulated gastric fluid (SGF). The format is in vitro ADME. The following applies: pig, simulated gastric fluid (SGF) with porcine pepsin (3.2 g/L), pH 1.2, 10 µM, 37 °C, porcine pepsin; for remaining at 1 h, 10 µM: pH 1.2, 1 h, read-out: SGF (% remaining 1 h); for remaining at 4 h, 10 µM: pH 1.2, 4 h, read-out: SGF (% remaining 4 h). The method, then: as §1, §2
Compounds with a SGF stability (after 4 h) above 70% are considered highly SGF stable. […] Table 3-4: SGF data

[3] abbreviates: read-out: SIF (% remaining 4 h).
Setting [4] is: SAR tables, % peptide remaining, read-out: SIF (% after 4 h).

The structures appear in SMILES notation. Where a SMILES comes first, the peptide text is derived from it. Bridges are numbered along the chain shown (N, C = ends). [ ]: non-standard residue; d: D form. 2Nal = N[C@@H](Cc1ccc2ccccc2c1)C(=O)O; AEF = NCCOc1ccc(C[C@H](N)C(=O)O)cc1; 3Pal = N[C@@H](Cc1cccnc1)C(=O)O; αMeL = CC(C)C[C@](C)(N)C(=O)O; Dab = NCC[C@H](N)C(=O)O

In the case of `CNC(=O)[C@H](Cc1cccnc1)NC(=O)[C@H](CCN)NC(=O)[C@@H]1CCC(=O)NCCCC[C@@H]2NC(=O)CC[C@H](NC(=O)[C@H](CCC(N)=O)NC(=O)[C@H](Cc3c[nH]c4ccccc34)NC(=O)CCNC2=O)C(=O)N[C@@H](Cc2ccccn2)C(=O)N[C@@H](Cc2ccc3ccccc3c2)C(=O)N[C@@](C)(CC(C)C)C(=O)N1` [Compound 84, K(1c)(6c)^†[3-Aminopropanoyl]WQE(6c)[3-(2-Pyridyl)-Ala][2-Nal][2-Me-Leu]E(1c)[Dab][3-(3-Pyridyl)-Ala]-[NHMe]], the remaining at 1 h, 10 µM in series [1] is 92%. Further, the remaining at 4 h, 10 µM in series [1] (setting [3]) is 82%. Further, on human IL-23R, the IC50 (as a rule, the point on the concentration scale where inhibition reaches its midpoint) was 0.11 nM and the Emax was determined as 97%. Also, in series [2], the remaining at 1 h, 10 µM was 107% and the remaining at 4 h, 10 µM is 103%.

`CC[C@H](C)[C@@H]1NC(=O)[C@@H]2CCCCNC(=O)CC[C@@H](C(=O)N[C@@H](Cc3cnc[nH]3)C(=O)N[C@@H](Cc3cccnc3)C(=O)NC)NC(=O)[C@](C)(CC(C)C)NC(=O)[C@H](Cc3ccc4ccccc4c3)NC(=O)[C@H](Cc3ccc(OCCN)cc3)NC(=O)[C@H](CCC(=O)N2)NC(=O)[C@H](CCC(N)=O)NC(=O)[C@H](Cc2c[nH]c3ccccc23)NC(=O)[C@H](C(C)C)NC1=O` [Compound 69, K(1c)(6c)^†IVWQE(6c)[Y(2-aminoethoxy)][2-Nal][2-Me-Leu]E(1c)H[3-(3-Pyridyl)-Ala]-[NHMe]]: the remaining at 1 h, 10 µM in series [1] is 89%. The remaining at 4 h, 10 µM in series [1] (setting [4]) is 33%. In addition, on human IL-23R, the IC50 came to 0.12 nM and the Emax stood at 101%. Moreover, in series [2], the remaining at 1 h, 10 µM was 112% and the remaining at 4 h, 10 µM is 102%.

As for `CNC(=O)[C@H](Cc1cccnc1)NC(=O)[C@H](CCN)NC(=O)[C@@H]1CCC(=O)N[C@H]2CCCCNC(=O)CC[C@H](NC(=O)[C@H](CCC(N)=O)NC(=O)[C@H](Cc3c[nH]c4ccccc34)NC(=O)CNC2=O)C(=O)N[C@@H](Cc2ccc(OCCN)cc2)C(=O)N[C@@H](Cc2ccc3ccccc3c2)C(=O)N[C@@](C)(CC(C)C)C(=O)N1` [Compound 104, [iso-Lys](1c)^†(6c)GWQE(6c)[Y(2-aminoethoxy)][2-Nal][2-Me-Leu]E(1c)[Dab][3-(3-Pyridyl)-Ala]-[NHMe]], in series [1], the remaining at 1 h, 10 µM is 106%. Further, the remaining at 4 h, 10 µM in series [1] (setting [3]) was 89%. In addition, on human IL-23R, the IC50 came to 0.5 nM and the Emax turned out to be 101%. Also, in series [2], the remaining at 1 h, 10 µM was 100% and the remaining at 4 h, 10 µM was 106%.

As to `CNC(=O)[C@H](Cc1cccnc1)NC(=O)[C@H](CCN)NC(=O)[C@@H]1CCC(=O)NCCCC[C@@H]2NC(=O)CC[C@H](NC(=O)[C@H](CCC(N)=O)NC(=O)[C@H](Cc3c[nH]c4ccccc34)NC(=O)CCCNC2=O)C(=O)N[C@@H](Cc2ccc(OCCN)cc2)C(=O)N[C@@H](Cc2ccc3ccccc3c2)C(=O)N[C@@](C)(CC(C)C)C(=O)N1` [Compound 98, K(1c)(6c)^†[4-Aminobutanoyl]WQE(6c)[Y(2-aminoethoxy)][2-Nal][2-Me-Leu]E(1c)[Dab][3-(3-Pyridyl)-Ala]-[NHMe]], in series [1], the remaining at 1 h, 10 µM was 88%. In series [1] (setting [3]), the remaining at 4 h, 10 µM was 58%. Besides, on human IL-23R, the “% displacement (hIL-23R NIuc)” value was 101% and the IC50 is 0.024 nM. Further, in series [2], the remaining at 1 h, 10 µM is 101% and the remaining at 4 h, 10 µM is 96%.

With `CC[C@H](C)[C@@H]1NC(=O)[C@@H]2CCCCNC(=O)CC[C@@H](C(=O)NC3(C(=O)N[C@@H](Cc4cccnc4)C(=O)NC)CCNCC3)NC(=O)[C@](C)(CC(C)C)NC(=O)[C@H](Cc3ccc4ccccc4c3)NC(=O)[C@H](Cc3ccc(OCCN)cc3)NC(=O)[C@H](CCC(=O)N2)NC(=O)[C@H](CCC(N)=O)NC(=O)[C@H](Cc2c[nH]c3ccccc23)NC(=O)[C@H](C(C)C)NC1=O` [Compound 62, K(1c)(6c)^†IVWQE(6c)[Y(2-aminoethoxy)][2-Nal][2-Me-Leu]E(1c)[4-Aminopiperidin-4-carbonyl][3-(3-Pyridyl)-Ala]-[NHMe]], in series [1], the remaining at 1 h, 10 µM is 111%. In series [1] (setting [3]), the remaining at 4 h, 10 µM is 87%. Moreover, on human IL-23R, the midpoint of inhibition, the IC50, lay at 0.072 nM and the Emax was 99%. Besides, in series [2], the remaining at 1 h, 10 µM was 105% and the remaining at 4 h, 10 µM was 108%.

Take `CNC(=O)[C@H](Cc1cccnc1)NC(=O)[C@H](CCN)NC(=O)[C@@H]1CCC(=O)NCCCC[C@@H]2NC(=O)CC[C@H](NC(=O)[C@H](CCC(N)=O)NC(=O)[C@H](Cc3c[nH]c4ccccc34)NC2=O)C(=O)N[C@@H](Cc2ccc(OCCN)cc2)C(=O)N[C@@H](Cc2ccc3ccccc3c2)C(=O)N[C@@](C)(CC(C)C)C(=O)N1` [Compound 43, K(1c)(6c)^†WQE(6c)[Y(2-aminoethoxy)][2-Nal][2-Me-Leu]E(1c)[Dab][3-(3-Pyridyl)-Ala]-[NHMe]] (KWQE[AEF][2Nal][αMeL]E[Dab][3Pal]-NHMe; lactam 1-8, N-4): the remaining at 1 h, 10 µM in series [1] is 91%. The remaining at 4 h, 10 µM in series [1] (setting [4]) is 102%. At human IL-23R, the half-maximal inhibitory concentration (IC50) was found to be 80 nM and the Emax stood at 100%. Also, in series [2], the remaining at 1 h, 10 µM was 110% and the remaining at 4 h, 10 µM was 108%.

In the case of `CC[C@H](C)[C@@H]1NC(=O)[C@@H]2CCCCNC(=O)CC[C@@H](C(=O)NCC(=O)N[C@H](Cc3cccnc3)C(N)=O)NC(=O)[C@](C)(C(C)C)NC(=O)[C@H](Cc3ccc4ccccc4c3)NC(=O)[C@H](Cc3ccc(C)cc3)NC(=O)[C@H](CCC(=O)N2)NC(=O)[C@H](CCC(N)=O)NC(=O)[C@H](Cc2c[nH]c3ccccc23)NC(=O)[C@H](C(C)C)NC1=O` [Compound 19, K(1c)(6c)^†IVWQE(6c)[F(4-Me)][2-Nal][2-Me-Val]E(1c)G[{d}3-(3-Pyridyl)-Ala]-[NH2]], the values for the remaining at 1 h, 10 µM in series [1] and in series [2] were 90% and 78%, respectively. In addition, the remaining at 4 h, 10 µM is 27% in series [1] (setting [3]) and 6% in series [2]. This compound showed a concentration for half-maximal inhibition (IC50) against human IL-23R of 37 nM. Moreover, the Emax on human IL-23R came out at 103%.

Take `CNC(=O)[C@H](Cc1cccnc1)NC(=O)[C@H](Cc1cnc[nH]1)NC(=O)[C@@H]1CCC(=O)NCCCC[C@@H]2NC(=O)CC[C@H](NC(=O)[C@H](CCC(N)=O)NC(=O)[C@H](Cc3c[nH]c4ccccc34)NC(=O)CCNC2=O)C(=O)N[C@@H](Cc2ccc(OCCN)cc2)C(=O)N[C@@H](Cc2ccc3ccccc3c2)C(=O)N[C@@](C)(CC(C)C)C(=O)N1` [Compound 86, K(1c)(6c)^†[3-Aminopropanoyl]WQE(6c)[Y(2-aminoethoxy)][2-Nal][2-Me-Leu]E(1c)H[3-(3-Pyridyl)-Ala]-[NHMe]]: the remaining at 1 h, 10 µM in series [1] was 77%. Also, the remaining at 4 h, 10 µM in series [1] (setting [3]) is 36%. Also, at human IL-23R, the “% displacement (hIL-23R NIuc)” value was 101% and half-maximal inhibition (IC50) was put at 0.049 nM. In series [2], the remaining at 1 h, 10 µM was 94% and the remaining at 4 h, 10 µM is 111%.

Consider `CC[C@H](C)[C@@H]1NC(=O)[C@@H]2CCCCNC(=O)CC[C@@H](C(=O)N[C@@H](CCN)C(=O)N[C@@H](Cc3cccnc3)C(=O)NC)NC(=O)[C@](C)(CC(C)C)NC(=O)[C@H](Cc3ccc4ccccc4c3)NC(=O)[C@H](Cc3ccc(OCCN)cc3)NC(=O)[C@H](CCC(=O)N2C)NC(=O)[C@H](CCC(N)=O)NC(=O)[C@H](Cc2c[nH]c3ccccc23)NC(=O)[C@H](C(C)C)NC1=O` [Compound 75, [N-Me-Lys](1c)(6c)^†IVWQE(6c)[Y(2-aminoethoxy)][2-Nal][2-Me-Leu]E(1c)[Dab][3-(3-Pyridyl)-Ala]-[NHMe]], for which the remaining at 1 h, 10 µM in series [1] was 96%. Moreover, the remaining at 4 h, 10 µM in series [1] (setting [3]) is 79%. In addition, at human IL-23R, the IC50 worked out at 0.017 nM and the Emax was 101%. Also, in series [2], the remaining at 1 h, 10 µM is 102% and the remaining at 4 h, 10 µM was 92%.

The record behind these values is patent EP4471048A1, “PEPTIDE INHIBITORS OF INTERLEUKIN-23 RECEPTOR” (Zealand Pharma A/S, priority 2023, dated 2024).
